# Results as given in patent publication US6511817B1, “Methods and device for in vitro detection and characterization of psychoactives using analysis of repetitive electrical activity in a neuronal sample” (Matsushita Electric Industrial Co., Ltd., priority 1999, dated 2003).
# “Also recorded” adds a separate entry of the source.
# Experiments:
# Format in all cases: cell-based, Sprague-Dawley rat
# hippocampal slice [1] = experiment: Effect of bath-applied drugs on carbachol-induced beta waves in hippocampal slices on a 64-electrode MED array, FFT analysis; conditions: for power within the 20 Hz band / shift in the peak: 10 μM Ampakine after carbachol
# Excerpt: (§1) The general procedures for the preparation of the Multi-Electrode Dish (Matsushita Electric Industrial Co. Ltd., Osaka, Japan: “the MED probe”) were described above. Procedures for the MED probe preparation are also described by Oka et al. […]. The device has an array of 64 planar microelectrodes, each having a size of 50×50 μm, arranged in an 8 by 8 pattern. Probes come with two types of interpolar distance, 150 μm (Panasonic: MED-P515AP) and 450 μm (Panasonic: MED-P545AP).
# (§2) To provide sufficient adhesion of the neuronal sample slice to the MED surface, the surface of the MED probe was treated with 0.1% polyethylenimine (Sigma: P-3143) in 25 mM borate buffer, pH 8.4, for 8 hours at room temperature. The probe surface was rinsed 3 times with sterile distilled water. The probe (chamber) was then filled with DMEM/F-12 mixed medium, containing 10% fetal bovine serum (GIBCO: 16141-079) and 10% horse serum (GIBCO: 16050-122), for at least 1 hour at 37° C. DMEM/F-12 mixed medium is a 1:1 mixture of Dulbecco's Modified Eagle's Medium and Ham's F-12 (GIBCO: D/F-12 medium, 12400-024), supplemented with N2 supplement (GIBCO: 17502-014) and hydrocortisone (20 nM, Sigma, H0888).
# (§3) A 17-24 day old Sprague-Dawley rat was sacrificed by decapitation after anesthesia using halothane (2-Bromo-2 chloro-1,1,1 -trifluoroethane, Sigma: B4388), and the whole brain was removed carefully. The brain was immediately soaked in ice-cold, oxygenated preparation buffer of the following composition (in mM): 124 NaCl, 26 NaHCO3, 10 glucose, 3 KCl, 1.25 NaH2PO4, 2 CaCl2, 2 MgSO4, for approximately 2 minutes. Appropriate portions of the brain were trimmed and placed on the ice-cold stage of a vibrating tissue slicer (Leica: VT-1000S). The stage was immediately filled with both oxygenated and frozen preparation buffers. The thickness of each tissue slice was 350 μm. Each slice was gently taken off the blade by a painting brush, trimmed, and immediately soaked in the oxygenated preparation buffer for 1 hour at room temperature. Then a slice was placed on the center of the MED probe. The slice was positioned to cover the 8×8 array. After positioning the slice, the MED probe was immediately placed in a box filled with 95% O^2 and 5% CO^2 and allowed to recover at 32° C. for 1 hour.
# (§4) During electrophysiological recording, the slices on the MED probe were placed in a small CO2 incubator (Asahi Lifescience: model 4020) at 32° C. After recovery of the slice on the MED probe, the medium was replaced with DMEM/F-12 mixed medium without serum. The slices were on the interface, and contacted with a moisturized 95% O2 and 5% CO2 gas mixture. In this condition, the responses were recorded for more than 2 hours.
# (§5) Drugs were purchased from RBI (diazepam, bicuculline, CNQX, 2-hydroxysaclofen) or Sigma (all other compounds). CX614 and CX691 were produced by Cortex Pharmaceuticals Inc. (Irvine, Calif.). All drugs were bath applied at known concentrations and were prepared daily from frozen aliquots.
# (§6) Spontaneous and evoked field potentials at all 64 sites were recorded simultaneously with the multi-channel recording system (Matsushita Electric Industrial Co. Ltd, the “MED64 system”) at a 20 kHz sampling rate. In the case of the evoked response, one of the planar microelectrodes out of the 64 available was used for cathode of stimulating. Bipolar constant current pulses (10 to 50 μA, 0.1 msec) were produced by the data acquisition software through the isolator. The stimulating microelectrode was selected by the 64 switch-box. The measured field potentials were then subjected to analysis using the CSD analysis (Nicholson et al) discussed below.
# entorhinal cortex = experiment: Carbachol-induced 40 Hz rhythm in retrohippocampal cortex, MED broad array
# Protocol: as §3, with “Then a slice was placed on the center of the MED probe. The slice was positioned to cover the 8×8 array. After positioning the slice, the MED probe was immediately placed in a box filled with 95% O^2 and 5% CO^2 and allowed to recover at 32° C. for 1 hour.” left out
# During electrophysiological recording, the slices on the MED probe were placed in a small CO2 incubator (Asahi Lifescience: model 4020) at 32° C. […] In this condition, the responses were recorded for more than 2 hours.
# Spontaneous and evoked field potentials at all 64 sites were recorded simultaneously with the multi-channel recording system (Matsushita Electric Industrial Co. Ltd, the “MED64 system”) at a 20 kHz sampling rate. […] The measured field potentials were then subjected to analysis using the CSD analysis (Nicholson et al) discussed below. […]
# hippocampal slice [2] = experiment: Carbachol induction of rhythmic activity in hippocampus (fields CA1 and CA3), MED array, FFT analysis; conditions: for group mean dominant CA1 frequency / group mean dominant CA3 frequency: mean ± s.d.
# Excerpt: as §1, §2, §3, §4, §5, §6
# [3] = diazepam plus carbachol, FIG. 13C
compound,measurement,setting,value
N#Cc1cc2[nH]c(=O)c(=O)[nH]c2cc1[N+](=O)[O-] [CNQX],amplitude of carbachol-induced waves,hippocampal slice [1]; 20 μM,significantly diminished and/or eliminated
same,effect on carbachol-induced high frequency rhythms,hippocampal slice [1]; 20 μM,greatly reduced
same,power of carbachol-induced waves,hippocampal slice [1]; 20 μM,significant decrease
same,synchronized activity in carbachol-treated sample,hippocampal slice [1]; 20 μM,very rapid loss
O=C1c2cc3c(cc2OC2CCCN12)OCCO3 (centres unmarked) [CX614],power within the 20 Hz band,hippocampal slice [1],significant increase
same,shift in the peak,hippocampal slice [1],10 Hz
O=C(c1ccc2nonc2c1)N1CCCCC1 [CX691],power within the 20 Hz band,hippocampal slice [1],significant increase
same,shift in the peak,hippocampal slice [1],10 Hz
O=[N+]([O-])c1cc2nc(O)c(O)nc2cc1[N+](=O)[O-] [DNQX],amplitude of carbachol-induced waves,hippocampal slice [1]; 20 μM,significantly diminished and/or eliminated
same,power of carbachol-induced waves,hippocampal slice [1]; 20 μM,significant decrease
same,synchronized activity in carbachol-treated sample,hippocampal slice [1]; 20 μM,very rapid loss
NS(=O)(=O)c1cccc2c1c([N+](=O)[O-])cc1nc(O)c(O)nc12 [NBQX],amplitude of carbachol-induced waves,hippocampal slice [1]; 10 μM,significantly diminished and/or eliminated
same,power of carbachol-induced waves,hippocampal slice [1]; 10 μM,significant decrease
same,synchronized activity in carbachol-treated sample,hippocampal slice [1]; 10 μM,very rapid loss
CN1[C@@H]2CC[C@H]1C[C@@H](OC(=O)C(CO)c1ccccc1)C2 (some centres unmarked) [atropine],effect on carbachol-induced high frequency rhythms,hippocampal slice [1]; 20 μM,completely eliminated
"C[N+](C)(C)CCOC(N)=O [carbachol, carbyl choline chloride]",frequency of oscillations in deep layers of the medial entorhinal cortex,entorhinal cortex; carbachol 50 μM,40 Hz
same,slices with forty Hz activity in the deep layers of the entorhinal cortex,entorhinal cortex; slices with appropriately positioned electrodes,each of the 15 slices
same,slices with rhythmic activity in CA1 and CA3 close to or within the beta band (10-30 Hz),hippocampal slice [2]; after infusion of carbachol,41 of 55
same,group mean dominant CA1 frequency,hippocampal slice [2]; all slices,18.8±5.7 Hz
same,group mean dominant CA3 frequency,hippocampal slice [2]; all slices,16.4±5.7 Hz
same,group mean dominant CA1 frequency,hippocampal slice [2]; beta instances alone,19.2±4.8 Hz
same,group mean dominant CA3 frequency,hippocampal slice [2]; beta instances alone,17.3±4.2 Hz
same,peak of rhythmic activity in apical dendrites of hippocampal pyramidal cell fields,hippocampal slice [2]; carbachol 50 μM,~20 Hz
same,peak of the power spectrum,hippocampal slice [2]; example slice of FIG. 6B,20 Hz
CN1C(=O)CN=C(c2ccccc2)c2cc(Cl)ccc21 [diazepam],amplitude of beta oscillations,"hippocampal slice [1]; 3 μM diazepam, 20 μM carbachol",markedly enhanced
same,change in the frequency of the waves,"hippocampal slice [1]; 3 μM diazepam, 20 μM carbachol",not accompanied by a significant change; also recorded: without much shift
same,increase in power within the 20 Hz band over carbachol alone,hippocampal slice [1]; [3],nearly threefold increase
same,peak added at a higher (gamma) frequency,hippocampal slice [1]; [3],approximately 40 Hz
picrotoxin,effect on carbachol-induced beta waves,hippocampal slice [1]; 50 μM picrotoxin,marked reduction
